In PMC13308190, “Endothelial progenitor cell susceptibility to DNA damaging and DDR-modulating compounds determines endothelial differentiation accuracy” (Stem Cell Research & Therapy, 2026):

Key:
Assay type in all cases: cell-based, mouse
[1] = tested on: EC d4 (endothelial progenitor cells); test: AlamarBlue cell viability; conditions: 48 h treatment
Protocol: (§1) Drug-induced cytotoxicity was monitored by analyzing cell viability using the AlamarBlue assay, which measures the reduction of the non-fluorescent dye resazurin (Sigma [Steinheim, Germany]) to fluorescent resorufin by living (i.e. metabolically active) cells. Fluorescence was measured in quadruplicates (excitation: 535 nm, emission: 590 nm (Tecan infinite 200, Tecan, Männedorf, Switzerland)). Relative cell viability of the untreated control was set to 100%.

mESC [2] = test: AlamarBlue cell viability; conditions: Mus musculus
Protocol: as §1

[3] = tested on: EC d4 (endothelial progenitor cells); test: Western blot protein expression (densitometry); conditions: EC d4 48 h; for CHK1 protein / RAD51 protein / gH2AX protein / p-CHK2 protein / p-KAP1 protein / p-RPA32 protein / p-p53 protein: Fig 5D
Protocol: (§2) Total protein cell extracts were obtained upon sonication in RIPA buffer (EpiShearTM Probe sonicator, Active Motif [La Hulpe, Belgium]). Protein concentrations were determined using the DC Protein Assay (BioRad [Munich, Germany]). Extracts were supplemented with Roti®-Load buffer (Carl Roth GmbH [Karlsruhe, Germany]) followed by heating (95 °C for 5 min). 20 µg of protein was separated by SDS-PAGE and transferred onto nitrocellulose membrane. After blocking (5% non-fat milk in TBS/0.1% Tween 20 or 5% BSA in TBS/0.1% Tween 20) (1 h, RT) membrane was incubated with primary antibodies (1:500–5000; overnight, 4 °C). After washing with TBS/0.1% Tween 20, peroxidase-conjugated secondary antibody (1:2000) was added (2 h, RT) and bands were visualized using ChemiDoxTM Touch imaging system (BioRad, Munich, Germany).

[4] = tested on: EC d6 (endothelial-like cells); test: Western blot protein expression (densitometry); conditions: EC d6 24 h; for CHK1 protein / RAD51 protein / gH2AX protein / p-CHK2 protein / p-KAP1 protein / p-RPA32 protein / p-p53 protein: Fig 5D
Protocol: as §2

mESC [5] = test: Western blot protein expression (densitometry); conditions: mESC 24 h
Protocol: as §2

EC d4 [6] = test: EdU incorporation (S-phase activity); conditions: EC d4 48 h
Protocol: S-phase activity of cells was monitored by measuring EdU incorporation using the EdU-Click 488 assay according to the manufacturer’s protocol. Briefly, cells were pulse-treated with 5-ethynyl-2′-deoxyuridine (EdU) for 3 h. Alexa Fluor 488-conjugated reaction cocktail was added (30 min, RT) and nuclei were counterstained with DAPI. The percentage of EdU-positive area/DAPI-positive area was calculated by fluorescence microscopy (Olympus BX43, 20x objective).

EC d6 = test: Mitochondrial membrane potential (TMRM-MitoTracker Green); conditions: EC d6 treated 24 h
Protocol: Mitochondrial membrane potential (ΔΨm) was analyzed by live-cell imaging using TMRM-MitoTracker Green co-staining. Cells were seeded and differentiated on Poly-D-Lysine-fibronectine-coated live-imaging dishes. For staining, cells were incubated with 200nM MitoTracker Green (Invitrogen) and 50 nM TMRM (Invitrogen) in DMEM (30 min, 37 °C, 5% CO2). After washing with PBS, live-cell microscopy was performed using a spinning disc confocal microscope (PerkinElmer) equipped with a 60x oil-immersion objective (N.A = 1.49) and a Hamamatsu C9100 camera (1000 × 1000 pixel) (excitation (MitoTracker Green): 488 nm, excitation (TMRM): 561 nm). The cells were kept at 37 °C in OptiMEM supplemented with 10 mM HEPES during imaging. The images were obtained at emission wavelength of 527 nm (W55) and 615 nm (W70) for 488 nm and 561 nm excitation, respectively.

EC d4 [7] = test: ZO1 tight junction immunofluorescence; conditions: EC d4 treated 48 h
[8] = concentration 1 (Dox 1/B02 1/EST 1)
[9] = concentration 2 (Dox 2/B02 2/EST 2)
[10] = Fig 5D, concentration 1 (Dox 1/B02 1/EST 1)
[11] = Fig 5D, concentration 2 (Dox 2/B02 2/EST 2)

mitochondrial membrane potential (EC d6): remained largely unaffected
SMILES: Nc1ccccc1NC(=O)c1ccc(CNC(=O)OCc2cccnc2)cc1 [EST, entinostat]
susceptibility (cell viability) of EC d4 as compared to both mESC and EC d6 [1]: significant higher | IC50 (mESC [2]; 24 h treatment): 18.8 µM | IC50 (mESC [2]; 72 h treatment): 2.6 µM | H3ac protein ([3]; Fig 1D): 4.6 Fold of mESC | H4ac protein ([3]; Fig 1D): 1853.2 Fold of mESC | aTubac (acetylated α-Tubulin) protein ([3]; Fig 1D): 0.9 Fold of mESC | CHK1 protein [3, 8]: 0.7 Fold of mESC | RAD51 protein [3, 8]: 1.0 Fold of mESC | gH2AX protein [3, 8]: 9.1 Fold of mESC | p-CHK2 protein [3, 8]: 0.6 Fold of mESC | p-KAP1 protein [3, 8]: 0.0 Fold of mESC | p-RPA32 protein [3, 8]: 0.8 Fold of mESC | p-p53 protein [3, 8]: 0.4 Fold of mESC | CHK1 protein [3, 9]: 1.0 Fold of mESC | RAD51 protein [3, 9]: 0.9 Fold of mESC | gH2AX protein [3, 9]: 8.9 Fold of mESC | p-CHK2 protein [3, 9]: 0.9 Fold of mESC | p-KAP1 protein [3, 9]: 0.0 Fold of mESC | p-RPA32 protein [3, 9]: 0.9 Fold of mESC | p-p53 protein [3, 9]: 0.5 Fold of mESC | AMPKa protein ([3]; Fig 6E): 0.5 Fold of mESC | GSK3b protein ([3]; Fig 6E): 2.3 Fold of mESC | p-p70SK protein ([3]; Fig 6E): 1.6 Fold of mESC | H3ac protein ([4]; Fig 1D): 7.8 Fold of mESC | H4ac protein ([4]; Fig 1D): 4083.7 Fold of mESC | aTubac (acetylated α-Tubulin) protein ([4]; Fig 1D): 1.0 Fold of mESC | CHK1 protein [4, 8]: 0.6 Fold of mESC | RAD51 protein [4, 8]: 0.6 Fold of mESC | gH2AX protein [4, 8]: 1.3 Fold of mESC | p-CHK2 protein [4, 8]: 0.5 Fold of mESC | p-KAP1 protein [4, 8]: 0.0 Fold of mESC | p-RPA32 protein [4, 8]: < 0.1 Fold of mESC | p-p53 protein [4, 8]: 0.3 Fold of mESC | CHK1 protein [4, 9]: 0.2 Fold of mESC | RAD51 protein [4, 9]: 0.1 Fold of mESC | gH2AX protein [4, 9]: 0.1 Fold of mESC | p-CHK2 protein [4, 9]: 0.3 Fold of mESC | p-KAP1 protein [4, 9]: 0.0 Fold of mESC | p-RPA32 protein [4, 9]: < 0.1 Fold of mESC | p-p53 protein [4, 9]: 0.3 Fold of mESC | AMPKa protein ([4]; Fig 6E): 0.7 Fold of mESC | GSK3b protein ([4]; Fig 6E): 1.7 Fold of mESC | p-p70SK protein ([4]; Fig 6E): 0.7 Fold of mESC | H3ac protein (mESC [5]; Fig 1D): 16.6 Fold of mESC | H4ac protein (mESC [5]; Fig 1D): 7426.8 Fold of mESC | aTubac (acetylated α-Tubulin) protein (mESC [5]; Fig 1D): 1.0 Fold of mESC | CHK1 protein (mESC [5]; Fig 4H, Eto, Dox 1, B02, EST): 1.0 Fold of mESC | p-ATR protein (mESC [5]; Fig 4H, Eto, Dox 1, B02, EST): 2.9 Fold of mESC | p-CHK1 protein (mESC [5]; Fig 4H, Eto, Dox 1, B02, EST): 0.1 Fold of mESC | p-RPA32 protein (mESC [5]; Fig 4H, Eto, Dox 1, B02, EST): 1.3 Fold of mESC | p-p53 protein (mESC [5]; Fig 4H, Eto, Dox 1, B02, EST): 0.9 Fold of mESC | CHK1 protein (mESC [5]; [10]): 0.8 Fold of mESC | RAD51 protein (mESC [5]; [10]): 1.4 Fold of mESC | gH2AX protein (mESC [5]; [10]): 7.7 Fold of mESC | p-CHK2 protein (mESC [5]; [10]): 1.0 Fold of mESC | p-KAP1 protein (mESC [5]; [10]): 2.9 Fold of mESC | p-RPA32 protein (mESC [5]; [10]): 0.7 Fold of mESC | p-p53 protein (mESC [5]; [10]): 0.9 Fold of mESC | CHK1 protein (mESC [5]; [11]): 0.7 Fold of mESC | RAD51 protein (mESC [5]; [11]): 1.4 Fold of mESC | gH2AX protein (mESC [5]; [11]): 10.1 Fold of mESC | p-CHK2 protein (mESC [5]; [11]): 1.0 Fold of mESC | p-KAP1 protein (mESC [5]; [11]): 8.2 Fold of mESC | p-RPA32 protein (mESC [5]; [11]): 0.7 Fold of mESC | p-p53 protein (mESC [5]; [11]): 0.8 Fold of mESC | AMPKa protein (mESC [5]; Fig 6E): 0.5 Fold of mESC | GSK3b protein (mESC [5]; Fig 6E): 1.2 Fold of mESC | p-p70SK protein (mESC [5]; Fig 6E): 0.8 Fold of mESC | S-phase activity (EdU-positive cells) (EC d4 [6]): not | ZO1 containing tight junctions in EC d6 differentiated from treated EC d4 (EC d4 [7]): did not affect
